Read-outs that look alike come from different tables or passages of the source.
Key:
[1] = Table S4; cited from earlier work
[2] = Transport assay (permeability) across iBMEC_33Q transwell BBB model; conditions: female, human
[3] = Transport assay (permeability) across iBMEC_71Q transwell BBB model; conditions: female, human
[4] = Transport assay (permeability) across iBMEC_109Q transwell BBB model; conditions: female, human
iBMEC_33Q [5] = tested on: iBMEC_33Q
iBMEC_71Q [6] = tested on: iBMEC_71Q
iBMEC_109Q [7] = tested on: iBMEC_109Q
iBMEC_33Q [8] = test: Transport assay (permeability) across iBMEC_33Q transwell BBB model; conditions: for Permeability iBMEC_33Q: Table 1, compound alone, mean ± SE, n > 6, compounds marked ^a calculated from Ptotal
iBMEC_71Q [9] = test: Transport assay (permeability) across iBMEC_71Q transwell BBB model; conditions: for Permeability iBMEC_71Q: Table 1, compound alone, mean ± SE, n > 6, compounds marked ^a calculated from Ptotal
iBMEC_109Q [10] = test: Transport assay (permeability) across iBMEC_109Q transwell BBB model; conditions: for Permeability iBMEC_109Q: Table 1, compound alone, mean ± SE, n > 6, compounds marked ^a calculated from Ptotal
iBMEC_33Q [11] = test: TNFα treatment, inflammatory gene expression (qRT-PCR), iBMEC_33Q; format: cell-based, human; conditions: 50 ng/mL TNFα, 48 h, versus untreated cells
Experimental: (§1) To evaluate the self-renewal capacity and the pluripotency as well as the trilineage differentiation potential, mRNA was subjected to the hPSC scorecard assay (Cat. A15872, Thermo Fisher, Monza, Italy) after RNA extraction from iPSC colonies with RNeasy mini kit (Cat. 74106, Qiagen, Hilden, Germany). cDNA was obtained with High-capacity cDNA reverse transcription kit (Cat. 4374966, Thermo Fisher, Monza, Italy). The expression of inflammatory genes after TNFα treatment was evaluated using the TaqMan™ Array Human Inflammation Panel (Cat. 4378722, Applied Biosystem, Foster City, CA, USA). qRT-PCR was performed in QuantStudio 12 K Flex (Thermo Fisher, Monza, Italy). The analysis of the hPSC score was conducted with the hPSC Score Card Panel software.
(§2) To mimic a neuroinflammatory condition, cells in transwells were treated with 50 ng/mL of TNFα for 48 h before RNA extraction.

iBMEC_71Q [12] = test: TNFα treatment, inflammatory gene expression (qRT-PCR), iBMEC_71Q; format: cell-based, human; conditions: 50 ng/mL TNFα, 48 h, versus untreated cells
Experimental: as §1, §2

iBMEC_109Q [13] = test: TNFα treatment, inflammatory gene expression (qRT-PCR), iBMEC_109Q; format: cell-based, human; conditions: 50 ng/mL TNFα, 48 h, versus untreated cells
Experimental: as §1, §2

all iBMECs = test: Inhibition of substrate transport by transporter inhibitors, all iBMECs; format: cell-based, human
Experimental: (§3) The measurement of TEER, transport studies, and the derivation of permeability coefficients were carried out as reported. In each filter, a paracellular marker (radiolabelled sucrose or LY) was added as internal control of the tightness of the monolayer. The amounts of radiotracer and fluorescent tracers were determined by liquid scintillation (Top Count-NXT, Microplate Scintillation and Luminescence counter from Perkin Elmer, Milan, Italy) and fluorescence spectrophotometry (SAFIRE TECAN, Microplate Fluorescence reader, Männedorf, Switzerland), respectively. In efflux and influx transport assays, before the addition of the compounds, filters were pre-incubated for 15 min at 37 °C with or without inhibitors and/or substrates: 2 µM elacridar (PGP inhibition), 2 µM of KO143 (BCRP inhibition), 10 µM JPH203 (LAT-1 inhibition), and 200 µM of phloretin (GLUT inhibition). Each test compound was assayed in triplicates. Transferrin from Human Serum, Alexa Fluor™ 594 Conjugate (T13343 Invitrogen™ from Thermo Fisher, Monza, Italy) was incubated (2.5 µM) in HBSS-20 mM Hepes pH 7.4 containing 1% BSA for 2 h, at 37 °C, and 5% CO2 and on ice at 4 °C. At the end of the incubation, aliquots from both compartments were collected and the fluorescent tracer was quantified.

iBMECs 33Q = test: Receptor-mediated transcytosis of fluorescent transferrin, iBMEC 33Q; format: in vitro ADME, human; conditions: basal compartment after 2 h, 2.5 µM, mean ± sd
Experimental: as §3

iBMECs 71Q = test: Receptor-mediated transcytosis of fluorescent transferrin, iBMEC 71Q; format: in vitro ADME, human; conditions: for Transferrin transported: 71Q, basal compartment after 2 h, 2.5 µM, mean ± sd
Experimental: as §3

iBMECs 109Q = test: Receptor-mediated transcytosis of fluorescent transferrin, iBMEC 109Q; format: in vitro ADME, human; conditions: for Transferrin transported: 109Q, basal compartment after 2 h, 2.5 µM, mean ± sd
Experimental: as §3

GLUT = test: in vitro; conditions: female, human
[14] = tested on: rat cerebral microcirculation; conditions: cited from earlier work

N[C@@H](Cc1ccccc1)C(=O)O [phenylalanine]
Human Kp,uu,CSF [1]: 0.28
Papp [2]: 25.8 ± 1.5 ×10⁻⁶ cm/s
Papp [3]: 21.4 ± 1.4 ×10⁻⁶ cm/s
Papp [4]: 30.4 ± 3 ×10⁻⁶ cm/s

N=C(N)NCCC[C@H](N)C(=O)O [arginine]
Human Kp,uu,CSF [1]: 0.28

O=C1NC(=O)C(c2ccccc2)(c2ccccc2)N1 [phenytoin]
Human Kp,uu,CSF [1]: 0.19
Papp [2]: 18.6 ± 0.2 ×10⁻⁶ cm/s
Papp [3]: 20.9 ± 1 ×10⁻⁶ cm/s
Papp [4]: 27.7 ± 1.5 ×10⁻⁶ cm/s

Cn1c(=O)c2c(ncn2C)n(C)c1=O [caffeine]
Human Kp,uu,CSF [1]: 1.00

CC(O)C(=O)O (stereo not drawn) [lactate]
Permeability iBMEC_33Q (iBMEC_33Q [5]): 53.8 ± 6.7 ×10^−6 cm/s
Permeability iBMEC_71Q (iBMEC_71Q [6]): 53.2 ± 3.6 ×10^−6 cm/s
Permeability iBMEC_109Q (iBMEC_109Q [7]): 52.6 ± 5.7 ×10^−6 cm/s

O=C(O)c1cc(=O)c2ccccc2[nH]1 [KYNA, kynurenic acid]
Human Kp,uu,CSF [1]: 0.024

[D-Ala2]deltorphin-II
Permeability iBMEC_33Q (iBMEC_33Q [8]): 0.77 ± 0.08 ×10^−6 cm/s
Permeability iBMEC_71Q (iBMEC_71Q [9]): 0.92 ± 0.01 ×10^−6 cm/s
Permeability iBMEC_109Q (iBMEC_109Q [10]): 1.01 ± 0.02 ×10^−6 cm/s

CN(Cc1cnc2nc(N)nc(N)c2n1)c1ccc(C(=O)N[C@@H](CCC(=O)O)C(=O)O)cc1 [methotrexate]
Human Kp,uu,CSF [1]: 0.02

NC(=O)N1c2ccccc2C=Cc2ccccc21 [carbamazepine]
Human Kp,uu,CSF [1]: 0.24

TNFα
Upregulation of ICAM-1 expression after TNFα treatment (iBMEC_33Q [11]; 33Q): 9 fold
Upregulation of VCAM1 expression after TNFα treatment (iBMEC_33Q [11]; iBMEC 33Q): more than 40 fold
Upregulation of ICAM-1 expression after TNFα treatment (iBMEC_71Q [12]; 71Q): about 2 fold
Upregulation of VCAM1 expression after TNFα treatment (iBMEC_71Q [12]; iBMEC 71Q): more than 40 fold
Upregulation of ICAM-1 expression after TNFα treatment (iBMEC_109Q [13]; 109Q): about 2 fold
Upregulation of VCAM1 expression after TNFα treatment (iBMEC_109Q [13]; iBMEC_109Q): none

Nc1cc(COc2c(Cl)cc(C[C@H](N)C(=O)O)cc2Cl)c2oc(-c3ccccc3)nc2c1 [JPH203]
Reduction of leucine transport (all iBMECs; 10 µM JPH203, all models): about 80%

N[C@@H](CCC(=O)O)C(=O)O [glutamate]
Efflux Ratio (iBMEC_33Q [8]; 33Q, no inhibitor): 1.8
Permeability A-B (iBMEC_33Q [8]; 33Q, no inhibitor, mean ± SD): 4.1 ± 0.2 ×10^−6 cm/s
Permeability B-A (iBMEC_33Q [8]; 33Q, no inhibitor, mean ± SD): 7.5 ± 0.5 ×10^−6 cm/s
Permeability iBMEC_33Q (iBMEC_33Q [8]): 4.1 ± 0.2 ×10^−6 cm/s
Efflux Ratio (iBMEC_71Q [9]; 71Q, no inhibitor): 2.0
Permeability A-B (iBMEC_71Q [9]; 71Q, no inhibitor, mean ± SD): 3.3 ± 0.1 ×10^−6 cm/s
Permeability B-A (iBMEC_71Q [9]; 71Q, no inhibitor, mean ± SD): 6.8 ± 0.6 ×10^−6 cm/s
Permeability iBMEC_71Q (iBMEC_71Q [9]): 3.3 ± 0.1 ×10^−6 cm/s
Efflux Ratio (iBMEC_109Q [10]; 109Q, no inhibitor): 1.3
Permeability A-B (iBMEC_109Q [10]; 109Q, no inhibitor, mean ± SD): 7.2 ± 0.7 ×10^−6 cm/s
Permeability B-A (iBMEC_109Q [10]; 109Q, no inhibitor, mean ± SD): 9.0 ± 0.5 ×10^−6 cm/s
Permeability iBMEC_109Q (iBMEC_109Q [10]): 7.2 ± 0.7 ×10^−6 cm/s

O=C1OC2(c3ccc(O)cc3Oc3cc(O)ccc32)c2ccccc21 [fluorescein]
Papp [2]: 0.11 ± 0.01 ×10⁻⁶ cm/s
Papp [3]: 0.24 ± 0.02 ×10⁻⁶ cm/s
Papp [4]: 0.8 ± 0.01 ×10⁻⁶ cm/s

CC(NC(C)(C)C)C(=O)c1cccc(Cl)c1 (stereo not drawn) [bupropion]
Human Kp,uu,CSF [1]: 1.11

N[C@@H](Cc1ccc(O)c(O)c1)C(=O)O [L-DOPA]
Human Kp,uu,CSF [1]: 0.49

Transferrin: Transferrin from Human Serum, Alexa Fluor 594 Conjugate
Transferrin transported (iBMECs 33Q; 4°C): 2.8 ± 0.4 ng
Transferrin transported (iBMECs 33Q; 37°C): 4.1 ± 0.7 ng
Transferrin transported (iBMECs 71Q; 4°C): 3.7 ± 0.3 ng
Transferrin transported (iBMECs 71Q; 37°C): 7.3 ± 0.4 ng
Higher level of basal accumulation of transferrin (iBMECs 71Q; iBMEC_71Q versus healthy model): ~2 fold
Transferrin transported (iBMECs 109Q; 4°C): 4.0 ± 1.0 ng
Transferrin transported (iBMECs 109Q; 37°C): 49.0 ± 13.0 ng
Higher level of basal accumulation of transferrin (iBMECs 109Q; iBMEC_109Q versus healthy model): about 5 fold

OC[C@H]1OC(O)[C@H](O)[C@@H](O)[C@@H]1O (stereo partly drawn) [glucose]
Human Kp,uu,CSF [1]: 0.65
Papp A→B (GLUT): 6.3 ×10⁻⁶ cm/s

CN(C)CCCC1(c2ccc(F)cc2)OCc2cc(C#N)ccc21 (stereo not drawn) [citalopram]
Human Kp,uu,CSF [1]: 1.77

lucifer yellow
Efflux Ratio (iBMEC_33Q [5]): 0.9
LY permeability, time course (iBMEC_33Q [5]): ≥ 0.5 ×10⁻⁶ cm/s
Permeability A-B (iBMEC_33Q [5]): 0.23 ± 0.02 ×10^−6 cm/s
Permeability B-A (iBMEC_33Q [5]): 0.21 ± 0.04 ×10^−6 cm/s
Permeability iBMEC_33Q, paracellular markers (iBMEC_33Q [5]): 2.3 ± 0.2 x10^-7 cm/s
Efflux Ratio (iBMEC_71Q [6]): 0.9
LY permeability, time course (iBMEC_71Q [6]): ≥ 0.5 ×10⁻⁶ cm/s
Permeability A-B (iBMEC_71Q [6]): 0.37 ± 0.03 ×10^−6 cm/s
Permeability B-A (iBMEC_71Q [6]): 0.34 ± 0.06 ×10^−6 cm/s
Permeability iBMEC_71Q, paracellular markers (iBMEC_71Q [6]): 3.7 ± 0.3 x10^-7 cm/s
Efflux Ratio (iBMEC_109Q [7]): 1.0
LY permeability, time course (iBMEC_109Q [7]): exceeded 5 × 10^−7 cm/s
Permeability A-B (iBMEC_109Q [7]): 0.70 ± 0.03 ×10^−6 cm/s
Permeability B-A (iBMEC_109Q [7]): 0.70 ± 0.1 ×10^−6 cm/s
Permeability iBMEC_109Q, paracellular markers (iBMEC_109Q [7]): 7.0 ± 0.3 x10^-7 cm/s
Permeability P in vivo [14]: 1 − 2 × 10^−7 cm/s

O=C(CCc1ccc(O)cc1)c1c(O)cc(O)cc1O [phloretin]
inhibition at 200 µM (all iBMECs; Homo sapiens, 200 µM phloretin, both directions (apical to basal and basal to apical), all iBMECs, read-out: Inhibition of glucose transport): 50 to 60%

CC(C)C[C@H](N)C(=O)O [leucine]
Human Kp,uu,CSF [1]: 0.12

Reference: publication PMC9321930, “Modelling the Human Blood–Brain Barrier in Huntington Disease” (International Journal of Molecular Sciences, 2022)
